Measured values reported in US20230141563A1, “METHODS AND COMPOSITIONS FOR ATTENUATING ANTI-VIRAL TRANSFER VECTOR IGM RESPONSES” (Selecta Biosciences, Inc., priority 2021, published 2023).

Test system: AAV IgG
Assay: Serum AAV IgG (ELISA) in AAV-SEAP-injected mice
Assay type: in vivo, C57BL/6 female mice
Details: Example 12; SVP[Rapa] 100 μg; ibrutinib 500 μg
Procedure: At time indicated (days 5, 9, 12, 16, 21, 42, 47, 51, 55, 162,167,174, 195 and 210) mice were bled, serum separated from whole blood and stored at −20±5° C. until analysis. Then IgM antibodies to AAV was measured in ELISA: 96-well plates coated o/n with the AAV, washed and blocked on the following day, then diluted serum samples (1:40) added to the plate and incubated; plates washed, donkey anti-mouse IgM specific-HRP added and after another incubation and wash, the presence of IgM antibodies to AAV detected by adding TMB substrate and measuring at an absorbance of 450 nm with a reference wavelength of 570 nm (the intensity of the signal presented as top optical density, OD, is directly proportional to the quantity of IgM antibody in the sample).
Same serum samples from Example 3 were also tested for AAV IgG measured by ELISA along the same lines as IgM with the exception of goat anti-mouse IgG specific-HRP being used.

C=CC(=O)N1CCC[C@@H](n2nc(-c3ccc(Oc4ccccc4)cc3)c3c(N)ncnc32)C1 [ibrutinib]
animals AAV IgG-converting by d22: 10/10
